Measurements published in patent US8063012B2, “Neuroprotective peptide inhibitors of AP-1 signaling and uses therefor” (Phylogica Limited, priority 2006, dated 2011).
“Also recorded” adds a separate entry of the source. Non-standard residues stand in square brackets, D forms with d. Residues, ends and D or L forms follow the SMILES beside them. No end group written: not given here.

Key:
[1] = tested on: primary cortical neuronal cultures; assay: Glutamate excitotoxicity in primary cortical neuronal cultures, neuronal viability by MTS assay; type: cell-based, rat; details: for neuronal viability following glutamate excitotoxicity: MTS 18 h
Experimental: Neurons were resuspended in Neurobasal (NB; Invitrogen) containing 2% B27 supplement (B27; Invitrogen). Before seeding, culture vessels comprising either a 96-well plastic plate or 24-well plastic plate with 13 mm glass coverslips (ProSciTech, Australia), were coated with poly-D-lysine (50 μg/mL; 70-150K; Sigma) and incubated overnight at room temperature. […] Neurons were plated to obtain approximately 10,000 viable neurons for each well of a 96-well plate, or 200,000 viable neurons per well of a 24-well plate, on day in vitro (DIV) […]. […] On DIV 4, one third of the culture medium was removed and replaced with fresh NB/2% B27 containing the mitotic inhibitor, cytosine arabinofuranoside (Sigma) at 1 μM concentration. On DIV 8, one half of the culture medium was replaced with NB/2% B27.
(§1) To induce glutamate excitotoxicity in the cortical neuronal cultures (96-well plate format), 50 μl of conditioned media containing 200 μM glutamate was added to culture wells containing 50 μl conditioned media (100 μM final glutamate concentration). Cultures were incubated at 37° C. in a CO2 incubator for 5 minutes, after which time the media was replaced with 100 μl of 50% NB/2% N2 and 50% balance salt solution (NB/N2:BSS).
Untreated and glutamate-treated control samples received media additions with and without glutamate respectively.
(§2) Eighteen hours after glutamate exposure, neuronal cultures were examined by light microscopy for qualitative assessment of neuronal damage. Neuronal viability was quantitatively measured by 3-(4,5,dimethyliazol-2-yl)-5-(3-carboxymethoxy-phenyl)-2-(4-sulfophenyl)-2H-tetrazolium salt (MTS) assay (Promega, Australia). The MTS assay measures the mitochondrial conversion of the tetrazolium salt to a water-soluble brown formazan salt, which is detected spectrophotometrically at 495 nm. MTS absorbance data was converted to reflect proportional cell viability relative to both the untreated and glutamate treated controls. […] All assays were performed with quadruplicate sister neuronal cultures repeated a minimum of four times independently.

[2] = tested on: primary cortical neuronal cultures; assay: Light microscopy assessment of neuronal damage after glutamate exposure; type: cell-based, rat; details: for neurons that appeared intact and viable: Sprague-Dawley, rat, 18 hours; for neuronal morphology (cellular rounding, survival) after glutamate exposure: light microscopy, one hour to 18 hours post glutamate exposure
Experimental: Cortical neuronal cultures were established as described by Meloni et al., Neuroscience 108, 17-26, 2001. Briefly, cortical tissue from E18-E19 Sprague-Dawley rats was dissociated in Dulbelcco's Modified Eagle Medium (DMEM; Invitrogen, Australia) supplemented with 1.3 mM L-cysteine, 0.9 mM NaHCO3, 10 units/ml papain (Sigma, USA) and 50 units/ml DNase (Sigma) and washed in cold DMEM/10% (v/v) horse serum. Neurons were resuspended in Neurobasal (NB; Invitrogen) containing 2% B27 supplement (B27; Invitrogen). Before seeding, culture vessels comprising either a 96-well plastic plate or 24-well plastic plate with 13 mm glass coverslips (ProSciTech, Australia), were coated with poly-D-lysine (50 μg/mL; 70-150K; Sigma) and incubated overnight at room temperature. The poly-D-lysine was removed and replaced with NB (containing 2% B27; 4% fetal bovine serum; 1% horse serum; 62.5 μM glutamate; 25 μM 2-mercaptoethanol; and 30 μg/mL streptomycin and 30 μg/mL penicillin). Neurons were plated to obtain approximately 10,000 viable neurons for each well of a 96-well plate, or 200,000 viable neurons per well of a 24-well plate, on day in vitro (DIV) […]. Neuronal cultures were maintained in a CO2 incubator (5% CO2, 95% air balance, 98% humidity) at 37° C. On DIV 4, one third of the culture medium was removed and replaced with fresh NB/2% B27 containing the mitotic inhibitor, cytosine arabinofuranoside (Sigma) at 1 μM concentration. On DIV 8, one half of the culture medium was replaced with NB/2% B27. Cultures were used on DIV 11 or 12, and consisted of >95% neurons.
as §1, §2

[3] = 2 μM extracellular concentration
[4] = 5 μM extracellular peptide, 100 μM glutamate 5 min, no insult = 100%
[5] = 1 μM extracellular concentration

CC[C@@H](C)[C@@H](NC(=O)CNC(=O)[C@@H](CCC(=O)O)NC(=O)[C@@H](CO)NC(=O)[C@@H](CCCNC(=N)N)NC(=O)[C@@H](CCC(=O)O)NC(=O)[C@H](NC(=O)[C@H](N)CCCCN)[C@H](C)CC)C(=O)N[C@H](CO)C(=O)N[C@H](CCC(N)=O)C(=O)N[C@H](CO)C(=O)N[C@H](C)C(=O)N[C@H](CCCNC(=N)N)C(=O)N[C@H](CO)C(=O)N[C@H](CCCNC(=N)N)C(=O)NCC(=O)N[C@H](Cc1ccc(O)cc1)C(=O)N[C@H](CO)C(=O)NCC(=O)N[C@H](CCCNC(=N)N)C(=O)N[C@H](CCCNC(=N)N)C(=O)N[C@H](CCCNC(=N)N)C(=O)N[C@H](CCC(N)=O)C(=O)N[C@H](CCCNC(=N)N)C(=O)N[C@H](CCCNC(=N)N)C(=O)N[C@H](CCCCN)C(=O)N[C@H](CCCCN)C(=O)N[C@H](CCCNC(=N)N)C(=O)NCC(=O)O [PYC35D Scram-TAT, reference compound] (H-[dK][dI][dE][dR][dS][dE]G[dI][dS][dQ][dS][dA][dR][dS][dR]G[dY][dS]G[dR][dR][dR][dQ][dR][dR][dK][dK][dR]G-OH; N-terminus and C-terminus assumed)
neuroprotection in the glutamate model ([1]; 5 μM extracellular peptide): failed to provide neuroprotection
neuroprotection in the glutamate model ([1]; 5 μM extracellular peptide, listed as PYC35L-Scram-TAT): reduced neuroprotection
neurons that appeared intact and viable [2]: 2-5%
neuronal morphology (cellular rounding, survival) after glutamate exposure [2]: displayed cellular rounding

CC[C@@H](C)[C@@H](NC(=O)CNC(=O)CNC(=O)[C@@H](CCCNC(=N)N)NC(=O)[C@@H](CCCNC(=N)N)NC(=O)[C@H](N)CCCCN)C(=O)N[C@H](CC(C)C)C(=O)N[C@H](CCCNC(=N)N)C(=O)N[C@H](Cc1ccc(O)cc1)C(=O)NCC(=O)N[C@H](CCC(N)=O)C(=O)N1CCC[C@@H]1C(=O)N[C@H](CCC(N)=O)C(=O)N[C@H](CO)C(=O)N[C@H](CCC(N)=O)C(=O)NCC(=O)N[C@H](CCCNC(=N)N)C(=O)N[C@H](CCCNC(=N)N)C(=O)N[C@H](CCCNC(=N)N)C(=O)N[C@H](CCC(N)=O)C(=O)N[C@H](CCCNC(=N)N)C(=O)N[C@H](CCCNC(=N)N)C(=O)N[C@H](CCCCN)C(=O)N[C@H](CCCCN)C(=O)N[C@H](CCCNC(=N)N)C(=O)NCC(=O)O [PYC36D Scram-TAT, reference compound] (H-[dK][dR][dR]GG[dI][dL][dR][dY]G[dQ][dP][dQ][dS][dQ]G[dR][dR][dR][dQ][dR][dR][dK][dK][dR]G-OH; N-terminus and C-terminus assumed)
neuroprotection in the glutamate model ([1]; 5 μM extracellular peptide): failed to provide neuroprotection
neuroprotection in the glutamate model ([1]; 5 μM extracellular peptide, listed as PYC36L Scram-TAT): reduced neuroprotection
neurons that appeared intact and viable [2]: 2-5%
neuronal morphology (cellular rounding, survival) after glutamate exposure [2]: displayed cellular rounding

GRKKRRQRRRGAYQSIRSGGIESSSKRER [PYC35L-TAT]
neuroprotection following glutamate excitotoxicity [1, 3]: neuroprotective trend
neuronal viability following glutamate excitotoxicity [1, 4]: 42%
extracellular concentration providing significant neuroprotection ([1]; glutamate excitotoxicity, dose response 0.1-10 μM): ≥ 2 µM
neuronal morphology (cellular rounding, survival) after glutamate exposure [2]: did not begin to round and survived glutamate excitotoxicity

GRKKRRQRRRGGLQGRRQPGQQPQGRWSGRALPAHR [PYC38/39L-TAT]
neuroprotection following glutamate excitotoxicity [1, 5]: neuroprotective trend
neuroprotection following glutamate excitotoxicity [1, 3]: initial significant neuroprotection
neuronal viability following glutamate excitotoxicity [1, 4]: 69%
neuronal morphology (cellular rounding, survival) after glutamate exposure [2]: did not begin to round and survived glutamate excitotoxicity

GRKKRRQRRRGGLQGRRRQGYQSIKP [PYC36L-TAT]
neuroprotection compared with JNKI-1D-TAT ([1]; 1 μM concentration): greater neuroprotection than JNKI-1D-TAT
neuroprotection following glutamate excitotoxicity [1, 5]: significant level of neuroprotection
neuronal viability following glutamate excitotoxicity ([1]; 1 μM extracellular peptide): 30%
neuronal viability following glutamate excitotoxicity [1, 4]: 64%
neuronal morphology (cellular rounding, survival) after glutamate exposure [2]: did not begin to round and survived glutamate excitotoxicity

GRKKRRQRRRGLINQSYAYPYIY [PYC19L-TAT]
neuroprotection following glutamate excitotoxicity [1, 5]: neuroprotective trend; also recorded: significant neuroprotection
neuroprotection following glutamate excitotoxicity [1, 3]: neuroprotective trend
neuronal viability following glutamate excitotoxicity [1, 4]: 32%
neuronal morphology (cellular rounding, survival) after glutamate exposure [2]: did not begin to round and survived glutamate excitotoxicity

GRKKRRQRRRGVSINQEHHRLLPL [PYC41L-TAT]
neuroprotection following glutamate excitotoxicity [1, 5]: neuroprotective trend
neuroprotection following glutamate excitotoxicity [1, 3]: initial significant neuroprotection
neuronal viability following glutamate excitotoxicity [1, 4]: 38%
neuronal morphology (cellular rounding, survival) after glutamate exposure [2]: did not begin to round and survived glutamate excitotoxicity
